Measured values as given in ChEMBL document CHEMBL6115011, “Optimizing biofilm inhibitors: Balancing activity and toxicity in 2N-aminated 5-aryl-2-aminoimidazoles” (Bioorg Med Chem, 2025).

How the values were obtained:
[1] = Cytotoxicity against human PBMC cells assessed as survival rate at 400 uM measured after 72 hrs by trypan blue staining based assay relative to control; type: toxicity, cell-based; conditions: read-out: Survival
Staphylococcus aureus [2] = test: Inhibition of biofilm formation in Staphylococcus aureus SH1000 at 25 degree C measured after 48 hrs by crystal violet staining based analysis; type: functional, organism-based; conditions: SH1000, 48 h
Escherichia coli [3] = test: Inhibition of biofilm formation in Escherichia coli TG1 at 25 degree C measured after 24 hrs by crystal violet staining based microplate reader analysis; type: functional, organism-based; conditions: TG1, 24 h
Staphylococcus aureus [4] = test: Inhibition of biofilm formation in methicillin-resistant Staphylococcus aureus at 25 degree C measured after 48 hrs by crystal violet staining based analysis; type: functional, organism-based
[5] = Genotoxicity in human CAPAN-1 cells at 100 to 400 uM measured after 3 hrs by Western blot analysis; type: toxicity, cell-based; conditions: capan-1, 3 h, dose 100-400 µM
Pseudomonas aeruginosa [6] = test: Antibacterial activity against Pseudomonas aeruginosa PA14 at 25 degree C measured after 24 hrs by crystal violet staining based microplate reader analysis; type: functional, organism-based; conditions: PA14, 24 h
[7] = tested on: Staphylococcus epidermidis; test: Inhibition of biofilm formation in Staphylococcus epidermidis at 25 degree C measured after 48 hrs by crystal violet staining based analysis; type: functional, organism-based
Pseudomonas aeruginosa [8] = test: Inhibition of biofilm formation in Pseudomonas aeruginosa PA14 at 25 degree C measured after 24 hrs by crystal violet staining based analysis; type: functional, organism-based; conditions: PA14, 24 h
[9] = tested on: Staphylococcus epidermidis; test: Antibacterial activity against Staphylococcus epidermidis at 25 degree C measured after 48 hrs by crystal violet staining based microplate reader analysis; type: functional, organism-based
Staphylococcus aureus [10] = test: Antibacterial activity against Staphylococcus aureus SH1000 at 25 degree C measured after 48 hrs by crystal violet staining based microplate reader analysis; type: functional, organism-based; conditions: SH1000, 48 h
[11] = Cytotoxicity against human PBMC cells assessed as survival rate at 100 uM measured after 72 hrs by trypan blue staining based assay relative to control; type: toxicity, cell-based; conditions: read-out: Survival
Staphylococcus aureus [12] = test: Antibacterial activity against methicillin-resistant Staphylococcus aureus at 25 degree C measured after 48 hrs by crystal violet staining based microplate reader analysis; type: functional, organism-based
Escherichia coli [13] = test: Antibacterial activity against Escherichia coli TG1 at 25 degree C measured after 24 hrs by crystal violet staining based microplate reader analysis; type: functional, organism-based; conditions: TG1, 24 h
[14] = Cytotoxicity against human PBMC cells assessed as survival rate at 25 uM measured after 72 hrs by trypan blue staining based assay (reference value: 94.0%); type: toxicity, cell-based; conditions: read-out: Survival

NCCCCCCNc1ncc(-c2ccccc2)[nH]1
viability at 72 h, 400 µM [1]: 2.9% | IC50 (Staphylococcus aureus [2]): 95.6 µM | IC50 (Escherichia coli [3]): 26.5 µM | IC50 (Staphylococcus aureus [4]): 62.7 µM | Activity [5]: Non-toxic | IC50 (Pseudomonas aeruginosa [6]): 73.4 µM | IC50 [7]: 29.2 µM | IC50 (Pseudomonas aeruginosa [8]): 23.4 µM | IC50 [9]: 164 µM | IC50 (Staphylococcus aureus [10]): 186 µM | viability at 72 h, 100 µM [11]: 12.9% | IC50 (Staphylococcus aureus [12]): 206 µM | IC50 (Escherichia coli [13]): 55.3 µM | viability at 72 h, 25 µM [14]: 78.6%
